Measured values published in paper PMC4303209, “A novel phosphatidylinositol 3-kinase (PI3K) inhibitor directs a potent FOXO-dependent, p53-independent cell cycle arrest phenotype characterized by the differential induction of a subset of FOXO-regulated genes” (Breast Cancer Research : BCR, 2014).

System: MCF-7 breast cancer cells
Experiment: Microarray gene expression analysis (Agilent whole human genome 4 x 44K; compound vs DMSO, LIMMA log2 fold change)
Format: cell-based
Details: Apoptosis genes

## Oc1cccc(-c2nc(N3CCOCC3)c3oc4ncccc4c3n2)c1 [PI-103]
Gene 6899
  TBX1 log2FC: 0.079
Gene 6910
  TBX5 log2FC: 0.103
Gene 6926
  TBX3 log2FC: -0.691
Gene 6934
  TCF7L2 log2FC: 0.036
Gene 6997
  TDGF1 log2FC: 0.005
Gene 7001
  PRDX2 log2FC: 0.385
Gene 7013
  TERF1 log2FC: 0.376
Gene 7015
  TERT log2FC: -0.048
Gene 7020
  TFAP2A log2FC: -0.507
Gene 7021
  TFAP2B log2FC: -0.150
Gene 7023
  TFAP4 log2FC: 0.386
Gene 7039
  TGFA log2FC: -0.533
Gene 7040
  TGFB1 log2FC: -0.436
Gene 7043
  TGFB3 log2FC: 0.355
Gene 7046
  TGFBR1 log2FC: 0.121
Gene 7048
  TGFBR2 log2FC: 0.950
Gene 7052
  TGM2 log2FC: -0.690
Gene 7057
  THBS1 log2FC: -0.908
Gene 7067
  THRA log2FC: 0.660
Gene 7072
  TIA1 log2FC: 0.065
Gene 7073
  TIAL1 log2FC: 0.160
Gene 7074
  TIAM1 log2FC: -0.173
Gene 7076
  TIMP1 log2FC: -0.137
Gene 7082
  TJP1 log2FC: 0.317
Gene 7088
  TLE1 log2FC: 0.501
Gene 7097
  TLR2 log2FC: -0.157
Gene 7098
  TLR3 log2FC: 0.801
Gene 7101
  NR2E1 log2FC: -0.112
Gene 7110
  TMF1 log2FC: 0.594
Gene 7124
  TNF log2FC: -1.866
Gene 7126
  TNFAIP1 log2FC: -0.271
Gene 7128
  TNFAIP3 log2FC: -0.853
Gene 7132
  TNFRSF1A log2FC: -0.921
Gene 7153
  TOP2A log2FC: 0.914
Gene 7157
  TP53 log2FC: 0.057
Gene 7159
  TP53BP2 log2FC: 0.347
Gene 7161
  TP73 log2FC: -0.255
Gene 7164
  TPD52L1 log2FC: 0.154
Gene 7178
  TPT1 log2FC: 0.376
Gene 7184
  HSP90B1 log2FC: 0.295
Gene 7185
  TRAF1 log2FC: -0.626
Gene 7187
  TRAF3 log2FC: -0.946
Gene 7188
  TRAF5 log2FC: 0.350
Gene 7189
  TRAF6 log2FC: -0.154
Gene 7204
  TRIO log2FC: 0.335
Gene 7227
  TRPS1 log2FC: 0.634
Gene 7262
  PHLDA2 log2FC: -3.120
Gene 7291
  TWIST1 log2FC: 0.425
Gene 7293
  TNFRSF4 log2FC: 0.091
Gene 7301
  TYRO3 log2FC: 0.021
Gene 7311
  UBA52 log2FC: 0.306
Gene 7314
  UBB log2FC: 0.036
Gene 7316
  UBC log2FC: 0.333
Gene 7320
  UBE2B log2FC: 0.652
Gene 7323
  UBE2D3 log2FC: -0.368
Gene 7349
  UCN log2FC: 0.293
Gene 7351
  UCP2 log2FC: 0.166
Gene 7374
  UNG log2FC: -0.352
Gene 7409
  VAV1 log2FC: 0.641
Gene 7410
  VAV2 log2FC: 0.038
Gene 7415
  VCP log2FC: -0.262
Gene 7416
  VDAC1 log2FC: -0.421
Gene 7421
  VDR log2FC: -1.024
Gene 7423
  VEGFB log2FC: 0.125
Gene 7428
  VHL log2FC: -0.079
Gene 7466
  WFS1 log2FC: -0.599
Gene 7474
  WNT5A log2FC: 0.134
Gene 7476
  WNT7A log2FC: -0.086
Gene 7477
  WNT7B log2FC: -0.378
Gene 7480
  WNT10B log2FC: -0.488
Gene 7481
  WNT11 log2FC: -0.088
Gene 7483
  WNT9A log2FC: 0.041
Gene 7486
  WRN log2FC: 0.379
Gene 7490
  WT1 log2FC: -0.652
Gene 7498
  XDH log2FC: 0.004
Gene 7507
  XPA log2FC: 0.468
Gene 7516
  XRCC2 log2FC: -0.599
Gene 7518
  XRCC4 log2FC: 0.561
Gene 7529
  YWHAB log2FC: 0.178
Gene 7531
  YWHAE log2FC: 0.050
Gene 7532
  YWHAG log2FC: -0.883
Gene 7533
  YWHAH log2FC: -0.481
Gene 7534
  YWHAZ log2FC: -0.301
Gene 7564
  ZNF16 log2FC: 0.344
Gene 7703
  PCGF2 log2FC: -0.113
Gene 7818
  DAP3 log2FC: 0.276
Gene 7832
  BTG2 log2FC: -1.051
Gene 7849
  PAX8 log2FC: 0.485
Gene 7855
  FZD5 log2FC: -0.196
Gene 7857
  SCG2 log2FC: 0.168
Gene 8013
  NR4A3 log2FC: 0.337
Gene 8022
  LHX3 log2FC: 0.039
Gene 8045
  RASSF7 log2FC: 0.194
Gene 8061
  FOSL1 log2FC: -2.531
Gene 8065
  CUL5 log2FC: -0.235
Gene 8087
  FXR1 log2FC: 0.653
Gene 8091
  HMGA2 log2FC: -1.508
Gene 8200
  GDF5 log2FC: -0.438
Gene 8241
  RBM10 log2FC: -0.115
Gene 8312
  AXIN1 log2FC: 0.422
Gene 8382
  NME5 log2FC: 0.271
Gene 8398
  PLA2G6 log2FC: -0.123
Gene 8406
  SRPX log2FC: 0.201
Gene 8428
  STK24 log2FC: -0.049
Gene 8439
  NSMAF log2FC: 0.165
Gene 8445
  DYRK2 log2FC: -0.467
Gene 8451
  CUL4A log2FC: 0.376
Gene 8452
  CUL3 log2FC: 0.00335
Gene 8453
  CUL2 log2FC: 0.251
Gene 8454
  CUL1 log2FC: 0.207
Gene 8462
  KLF11 log2FC: 1.202
Gene 8473
  OGT log2FC: 0.352
Gene 8517
  IKBKG log2FC: -0.216
Gene 8535
  CBX4 log2FC: -0.090
Gene 8539
  API5 log2FC: -0.497
Gene 8565
  YARS log2FC: -0.500
Gene 8567
  MADD log2FC: 0.749
Gene 8633
  UNC5C log2FC: 0.011
Gene 8644
  AKR1C3 log2FC: 0.528
Gene 8648
  NCOA1 log2FC: 0.476
Gene 8655
  DYNLL1 log2FC: -1.055
Gene 8660
  IRS2 log2FC: 0.876
Gene 8678
  BECN1 log2FC: 0.354
Gene 8682
  PEA15 log2FC: 0.569
Gene 8692
  HYAL2 log2FC: -0.333
Gene 8717
  TRADD log2FC: 0.506
Gene 8718
  TNFRSF25 log2FC: -0.549
Gene 8737
  RIPK1 log2FC: -0.336
Gene 8738
  CRADD log2FC: -0.080
Gene 8739
  HRK log2FC: 0.399
Gene 8767
  RIPK2 log2FC: 0.379
Gene 8771
  TNFRSF6B log2FC: -1.304
Gene 8772
  FADD log2FC: -0.617
Gene 8784
  TNFRSF18 log2FC: -0.038
Gene 8793
  TNFRSF10D log2FC: -0.508
Gene 8795
  TNFRSF10B log2FC: -0.908
Gene 8797
  TNFRSF10A log2FC: -0.907
Gene 8805
  TRIM24 log2FC: 0.826
Gene 8829
  NRP1 log2FC: -0.252
Gene 8831
  SYNGAP1 log2FC: -0.399
Gene 8835
  SOCS2 log2FC: 0.381
Gene 8837
  CFLAR log2FC: -0.542
Gene 8841
  HDAC3 log2FC: -0.248
Gene 8846
  ALKBH1 log2FC: -0.111
Gene 8848
  TSC22D1 log2FC: 0.388
Gene 8851
  CDK5R1 log2FC: -0.328
Gene 8854
  ALDH1A2 log2FC: 0.042
Gene 8870
  IER3 log2FC: -2.265
Gene 8874
  ARHGEF7 log2FC: 0.044
Gene 8877
  SPHK1 log2FC: -0.416
Gene 8878
  SQSTM1 log2FC: 0.782
Gene 8879
  SGPL1 log2FC: -0.0047
Gene 8887
  TAX1BP1 log2FC: 1.267
Gene 8915
  BCL10 log2FC: 0.116
Gene 8930
  MBD4 log2FC: 0.294
Gene 8996
  NOL3 log2FC: 0.486
